Where “and” joins values, the source holds several entries; their conditions need not be identical. Equal values may be shown once.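 These data come from cells grown in 96-well plates and exposed to compound for 48 hours at five concentrations. Abbreviation: GI50, concentration required for 50% inhibition of growth. TGI: total growth inhibition.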
Assays:
Assay in all cases: DTP human tumour cell line panel, 48 h
SK-OV-3 ovarian = test system: SK-OV-3 ovarian
SNB-78 CNS = test system: SNB-78 CNS
NCI-H522 lung = test system: NCI-H522 lung
M14 melanoma = test system: M14 melanoma
HOP-18 NSCLC = test system: HOP-18 NSCLC
DMS 273 small cell lung = test system: DMS 273 small cell lung
SW-620 colon = test system: SW-620 colon
XF 498 CNS = test system: XF 498 CNS
DLD-1 colon = test system: DLD-1 colon
M19-MEL melanoma = test system: M19-MEL melanoma
MOLT-4 leukemia = test system: MOLT-4 leukemia
KM20L2 colon = test system: KM20L2 colon
OVCAR-8 ovarian = test system: OVCAR-8 ovarian
LXFL 529 NSCLC = test system: LXFL 529 NSCLC
DMS 114 small cell lung = test system: DMS 114 small cell lung
RXF-631 renal = test system: RXF-631 renal

SMILES	TGI (SK-OV-3 ovarian) [µM]	TGI (SNB-78 CNS) [µM]	TGI (NCI-H522 lung)	TGI (M14 melanoma) [µM]	TGI (HOP-18 NSCLC)	TGI (DMS 273 small cell lung) [µM]	TGI (SW-620 colon) [µM]	TGI (XF 498 CNS) [µM]	TGI (DLD-1 colon) [µM]	TGI (M19-MEL melanoma) [µM]	TGI (MOLT-4 leukemia) [µM]	TGI (KM20L2 colon) [µM]	TGI (OVCAR-8 ovarian) [µM]	TGI (LXFL 529 NSCLC) [µM]	TGI (DMS 114 small cell lung) [µM]	TGI (RXF-631 renal) [µM]	GI50 (HOP-18 NSCLC) [µM]	GI50 (KM20L2 colon) [µM]
O/N=C\C(=Nc1ccc(Cc2ccc(N=C(/C=N\O)NO)cc2)cc1)NO	> 100	> 100	> 100 µM	> 100	> 100 µM	> 100	> 100	> 100	> 100	> 100	> 100	> 100	> 100	> 100	> 100	–	–	–
OC12c3ccccc3C1CCCCCC21OCCCO1 (stereo not drawn)	> 100	> 100	> 100 µM	> 100	> 100 µM	> 100	> 100	–	> 100	> 100	> 100	> 100	> 100	> 100	> 100	–	–	–
CC(=O)NC1=C(N)C(=O)c2ccccc2C1=O	> 100	> 100	> 100 µM	> 100	> 100 µM	> 100	29.2	> 100	> 100	41	> 100	> 100	> 100	> 100	28.1	> 100	–	–
CCCCCCCCCC(=O)NC(Cc1ccc(O)cc1)C(=O)NCCCNCCCCNCCCNC(=O)[C@@H](N)CCCN=C(N)N (stereo partly drawn)	> 100	–	69.7 µM	> 100	–	42.9	> 100	> 100	–	> 100	> 100	> 100	> 100	> 100	> 100	–	–	–
COC(=O)CCC(=O)N1CC1C (stereo not drawn)	> 100	–	> 100 µM	> 100	> 100 µM	> 100	> 100	> 100	> 100	> 100	> 100	> 100	> 100	> 100	> 100	–	–	–
COc1cc(C2c3cc4c(cc3[C@@H](N(C)c3ccc(N(C)C)cc3)C3COC(=O)C23)OCO4)cc(OC)c1O (stereo partly drawn)	43	–	0.553 µM	14.5	26.2 µM	19.5	21.8	–	37.5	12.1	25.8	–	> 59.8	12.3	2.24	40.7	–	–
C=CCn1c(=N)/c(=C(\N)O)s/c1=C1/SC(=S)N(c2ccc(C)cc2)C1=O	> 100	–	> 100 µM	–	> 100 µM	–	> 100	–	–	> 100	> 100	–	> 100	> 100	–	–	–	–
COC(=O)CC(C(C(C)=O)C(=O)OCc1ccccc1)N1C(=O)OC(c2ccccc2)C1c1ccccc1 (stereo not drawn)	> 100	–	65.8 µM and > 100 µM	–	51.1 µM and > 100 µM	> 100	> 100	> 100	> 100	> 100	> 100	> 100	> 100	> 100	> 100	> 100	> 100	> 100
O=C(NCc1ccc2ccc3cccnc3c2n1)c1ccc[n+](Cc2ccccc2)c1	> 100	–	> 100 µM	> 100	> 100 µM	> 100	> 100	> 100	> 100	> 100	> 100	> 100	> 100	> 100	> 100	> 100	–	–
